Experiments:
[1] = Freshness of cured beef by formation of malondialdehyde
Protocol: (d) Cured beef was treated with “Origanox™ WS-A” (b(ii), above). The thus-treated cured beef product contained approximately 32.5 ppm sodium rosmarinate and 500 ppm ascorbic acid. The higher proportion of ascorbic acid in this case was to inhibit the formation of toxic nitrosamines. The product was tested for freshness as evidenced by the formation of malondialdehyde after 1, 4 and 7 days, and compared with control (no treatment) and with other treatments.

[2] = Myoglobin stabilization (colour intensity) in treated fresh beef; conditions: after seven days, 250 ppm
Protocol: (c) Fresh beef was treated, by injection, with “Origanox™ WS-A” (b)(i), above. The thus-treated fresh beef product contained approximately 32.5 ppm sodium rosmarinate and 250 ppm ascorbic acid. The product was tested for myoglobin stabilization by measuring absorption, i.e. intensity of color, at 542 nm, after seven days.

[3] = Inhibition of oxidative deterioration in soybean oil at 180° C. (hexanal and trans-decadienal formed); conditions: four hours, 0.02%
Protocol: (c) Inhibition of oxidative deterioration in soybean oil at 180° C. (four hours) was determined by dissolving Origanox™ OS-A, rosemary oil or TBHQ in the soybean oil and determining the amount of hexanal and trans-decadienal formed in the product, compared with a control in which no antioxidant was used.

salmonella = experiment: Inhibition of salmonella growth; type: cell-based; conditions: control growth at 8 hours = 100%
Protocol: The inhibition of salmonella growth was determined for the title combination and this was compared with control (absence of inhibitors) and using separately, sodium rosmarinate and sodium acetate. The results are as follows, comparing the inhibition of growth effect of inhibitors, control growth being taken arbitrarily at 8 hours, as 100%: […]

mold = experiment: Deterioration of whole wheat flour due to mold, measured by carbon dioxide formation; conditions: for carbon dioxide formation: 22% moisture, 30° C.
Protocol: Whole wheat flour which contained 22% moisture was maintained at a temperature of 30° C. The deterioration due to mold formation was measured by determining the amount (%) of carbon dioxide which formed over a ten day period or until the maximum of 15-16% was attained, whichever was the sooner.

With `O=C1O[C@H]([C@@H](O)CO)C(O)=C1O` [ascorbic acid] the Formation of malondialdehyde ([1]; day 1, 500 ppm) was 0.788 mg/kg, the Formation of malondialdehyde ([1]; day 4, 500 ppm) was 1.224 mg/kg and the Formation of malondialdehyde ([1]; day 7, 500 ppm) was 1.944 mg/kg. For the same compound, the “absorption at 542 nm” value [2] was 0.513.
In the case of `CC(C)(C)c1cc(O)ccc1O` [TBHQ], the “% Inhibition” value [3] is reported as 32%.
With `CC(=O)[O-].[Na+]` [Sodium acetate] the “% Growth” value (salmonella; 4 hours, 1.0%) was 33%, the “% Growth” value (salmonella; 4 hours, 2.0%) was 17% and the “% Growth” value (salmonella; 8 hours, 1.0%) was 75%. The “% Growth” value (salmonella; 8 hours, 2.0%) was 62%.
For `O=C(/C=C/c1ccc(O)c(O)c1)O[C@H](Cc1ccc(O)c(O)c1)C(=O)O` [sodium rosmarinate], the Formation of malondialdehyde ([1]; day 1, 32.5 ppm) was 0.798 mg/kg, the Formation of malondialdehyde ([1]; day 4, 32.5 ppm) was 1.097 mg/kg and the Formation of malondialdehyde ([1]; day 7, 32.5 ppm) was 1.327 mg/kg.
For `CCC(=O)[O-].CCC(=O)[O-].[Ca+2]` [Ca propionate, calcium propionate], the “time until maximum % carbon dioxide (maximum deterioration) was reached” value (mold; 0.2%) was 7 to 8 days, the carbon dioxide formation (mold; Day 0, 0.2%) was 0.54% and the carbon dioxide formation (mold; Day 1, 0.2%) was 0.81%. For the same compound, the carbon dioxide formation (mold; Day 2, 0.2%) was 1.1%, the carbon dioxide formation (mold; Day 3, 0.2%) was 1.3% and the carbon dioxide formation (mold; Day 4, 0.2%) was 2.0%. It also gave a carbon dioxide formation (mold; Day 5, 0.2%) of 3.2%, a carbon dioxide formation (mold; Day 6, 0.2%) of 6.5% and a carbon dioxide formation (mold; Day 7, 0.2%) of 14.6%. It also gave a carbon dioxide formation (mold; Day 8, 0.2%) of 15%.

Reference: US20070184165A1, “Compositions and methods for improving the efficiency of preservatives in foods” (RAD NATURAL TECHNOLOGIES LTD., priority 2003, published 2007)
